Data as given in US20210077570A1, “COMPOSITION COMPRISING A POLYMYXIN AND TEICOPLANIN” (GALENUS G.H. AG, priority 2018, published 2021).
Read-outs that look alike come from different tables or passages of the source. Positions of bridges follow the written chain, without caps; N, C: chain ends. Non-standard residues stand in square brackets, D forms with d. Residues, ends and D or L forms follow the SMILES beside them. *: point of attachment. Heptanoyl(5-Me) = CCC(C)CCCC(=O)*; Dab = NCC[C@H](N)C(=O)O

Key:
A. nosocomialis 1461911 = test: Checkerboard analysis MIC/FIC and MBC/FBC, colistin sulphate plus teicoplanin; format: cell-based; details: agent alone, CAMHB, inoculum 5*10^5 CFU/ml; for MIC: A. nosocomialis 1461911, 24 h; for MBC: A. nosocomialis
Procedure: (§1) Checkerboard analysis to determine minimal inhibitory concentration (MIC)/fractional inhibitory concentration (FIC) and minimal […] (MBC)/fractional […] (FBC) values of colistin sulphate (CS) plus teicoplanin (TP) for 6 Gram-negative strains with a bacterial load 5(1−10)*10^5 CFU/ml in a cation-adjusted Mueller-Hinton broth (CAMHB). • a. Antimicrobial stock solutions were prepared using sterile distilled water • b. CS was added along the ordinate; TP was added along the abscissa to 96 well, flat bottom, polystyrene panels with no treatment. Colistin alone was tested in triplicates. • c. Serial 2-fold dilutions starting with 640 μg/ml CS and 640 μg/ml TP were made; 15 μl volume of the serial dilutions were added for each agent to the appropriate wells; final volume at 30 μl • d. For each agent tested alone an additional 15 μl media was added to the well. 30 μl were added in control wells where none of the agent was tested. The negative control well contains 150 μl media without any additions • e. From an overnight bacterial culture in tryptic soy broth, 100 μl was added to 10 mL of fresh tryptic soy broth. This was then incubated at 37° C. for 1.5 hour at 180 rpm. • f. Bacteria in 120 μl CAMHB were added to each well (end concentration 5(1−10)*10^5 CFU/ml) • g. Plates were incubated at 37° C. in an ambient air incubator for 24 h • h. Turbidity at OD600 is determined with a plate photometer • i. By using a one-time inoculator 3 μl from each well of the 96-well plate were transferred to three blood agar plates. The plates were incubated over night at 37° C. in an ambient air incubator • j. MIC values are defined as lowest concentration which restricts bacterial growth to OD600≤0.1 • k. MBC values were determined by visual reading the lowest concentration which inhibits 99.9% of the growth of bacteria in the wells • l. Determination of the fractional inhibitory concentration (FIC) index and fractional bactericidal concentration (FBC) index and characterization of antimicrobial interactions was assessed • FIC calculation was carried out as: (MIC of drug A, tested in combination)/(MIC of drug A, tested alone)+(MIC of drug B, tested in combination)/(MIC of drug B, tested alone). FBC calculation was carried out just as well • Interactive categories were calculated from checkerboard analysis using MIC results from testing each agent alone and MIC results from the combination wells adjacent to the wells with growth in them […]
b. Indifference; FIC/FBC>0.5 to <4.0 c. Antagonism; FIC/FBC≥4.0 b. A. nosocomialis 1461911 (IHMA), colistin resistant

[1] = test system: stationary bacteria from biofilm; test: Elimination of stationary bacteria from biofilm (catheter piece in CAMHB); format: cell-based; details: for Elimination of bacteria from biofilm: conclusion, TEC alone in case a Gram-positive strain is tested; for Colony counts, incubated with as compared without a catheter piece / Increase (at least two dilution steps) of MIC, incubated with as compared without a catheter piece: tubes showing no gross turbidity; for Colony counts, incubated with as compared without a catheter piece: after centrifugation, any of the strains tested, TEC mono in case a Gram-positive strain is tested; for Increase (at least two dilution steps) of MIC, incubated with as compared without a catheter piece: MIC of CS, or of TEC in case a Gram-positive strain is tested
Procedure: To test the elimination of stationary bacteria from biofilm in vitro in CAMHB comparing combination versus monotherapy the same teicoplanin and colistin (serum) concentrations derived from pharmacokinetic studies are used as above.
Each of the total 16 sets as above is performed in duplicates. Each tube is filled with 5 ml CAMHB and in one of each duplicates a 2 cm long piece of a plastic catheter is inserted. Then all tubes are inoculated with the test strain and incubated aerobically at ambient air at 37° C. overnight (16-24 h). The tubes are removed from the incubator and the appropriate blank, mono or combination drug concentrations to be tested are added to each tube and the tubes are incubated aerobically at ambient air at 37° C. for an additional 24 h. The tubes are removed from the incubator and vortexed for about 10 min. Thereafter the catheter pieces from the corresponding one of the duplicates are removed.
From tubes showing growth with turbidity the MIC of CS or TEC in case of testing Gram-positive bacteria for the test strains is determined as above and compared to the original MIC. All tubes showing growth or no growth according to turbidity are centrifuged for 10 min at 3000 rpm and about 100 μL of the sediment is transferred onto IsoSensitest agar plate supplemented with 5% blood (Oxoid) and containing concentrations of CS of 4 mg/L, 8 mg/L, 16 mg/L, and 32 mg/L—or TEC of 4 mg/L, 8 mg/L, 16 mg/L in case a Gram-positive strain is tested. After overnight incubation the number of CFUs growing on the plates containing different CS concentrations—or TEC concentrations in case a Gram-positive strain is tested—are counted.

A. haemolyticus 1655843 = test: Checkerboard analysis MIC/FIC and MBC/FBC, colistin sulphate plus teicoplanin; format: cell-based; details: agent alone, CAMHB, inoculum 5*10^5 CFU/ml; for MBC: A. haemolyticus
Procedure: as §1, with “By using a one-time inoculator 3 μl from each well of the 96-well plate were transferred to three blood agar plates. The plates were incubated over night at 37° C. in an ambient air incubator • j. MIC values are defined as lowest concentration which restricts bacterial growth to OD600≤0.1 • k. MBC values were determined by visual reading the lowest concentration which inhibits 99.9% of the growth of bacteria in the wells • l.” left out

A. junii 1397597 = test: as above; format: cell-based; details: agent alone, CAMHB, inoculum 5*10^5 CFU/ml; for MBC: A. junii; for MIC: A. junii 1397597, 24 h
Procedure: as §1
b. Indifference; FIC/FBC>0.5 to <4.0 c. Antagonism; FIC/FBC≥4.0 a. A. junii 1391597 (IHMA), colistin resistant

A. guillouiae 1285286 = test: as above; format: cell-based; details: agent alone, CAMHB, inoculum 5*10^5 CFU/ml; for MIC: A. guillouiae 1285286, 24 h; for MBC: A. guillouiae
Procedure: as §1
b. Indifference; FIC/FBC>0.5 to <4.0 c. Antagonism; FIC/FBC≥4.0 d. A. guillouiae 1285286 (IHMA), colistin resistant

S. maltophilia 1237289 = test: as above; format: cell-based, Stenotrophomonas maltophilia; details: agent alone, CAMHB; for MIC: S. maltophilia 1237289; for MBC: S. maltophilia, second line of Table 2 (1237289 by order)
Procedure: Checkerboard analysis to determine minimal inhibitory concentration (MIC)/fractional inhibitory concentration (FIC) and minimal […] (MBC)/fractional […] (FBC) values of colistin sulphate (CS) plus teicoplanin (TP) for 6 Gram-negative strains with a bacterial load 5(1−10)*10^5 CFU/ml in a cation-adjusted Mueller-Hinton broth (CAMHB). • a. Antimicrobial stock solutions were prepared using sterile distilled water • b. CS was added along the ordinate; TP was added along the abscissa to 96 well, flat bottom, polystyrene panels with no treatment. Colistin alone was tested in triplicates. • c. Serial 2-fold dilutions starting with 640 μg/ml CS and 640 μg/ml TP were made; 15 μl volume of the serial dilutions were added for each agent to the appropriate wells; final volume at 30 μl • d. For each agent tested alone an additional 15 μl media was added to the well. 30 μl were added in control wells where none of the agent was tested. The negative control well contains 150 μl media without any additions • e. From an overnight bacterial culture in tryptic soy broth, 100 μl was added to 10 mL of fresh tryptic soy broth. This was then incubated at 37° C. for 1.5 hour at 180 rpm. • f. Bacteria in 120 μl CAMHB were added to each well (end concentration 5(1−10)*10^5 CFU/ml) • g. Plates were incubated at 37° C. in an ambient air incubator for 24 h • h. Turbidity at OD600 is determined with a plate photometer • i. By using a one-time inoculator 3 μl from each well of the 96-well plate were transferred to three blood agar plates. The plates were incubated over night at 37° C. in an ambient air incubator • j. MIC values are defined as lowest concentration which restricts bacterial growth to OD600≤0.1 • k. MBC values were determined by visual reading the lowest concentration which inhibits 99.9% of the growth of bacteria in the wells • l. Determination of the fractional inhibitory concentration (FIC) index and fractional bactericidal concentration (FBC) index and characterization of antimicrobial interactions was assessed • FIC calculation was carried out as: (MIC of drug A, tested in combination)/(MIC of drug A, tested alone)+(MIC of drug B, tested in combination)/(MIC of drug B, tested alone). FBC calculation was carried out just as well • Interactive categories were calculated from checkerboard analysis using MIC results from testing each agent alone and MIC results from the combination wells adjacent to the wells with growth in them
b. Indifference; FIC/FBC>0.5 to <4.0
c. Antagonism; FIC/FBC≥4.0

S. maltophilia 1221783 = test: as above; format: cell-based, Stenotrophomonas maltophilia; details: agent alone, CAMHB, inoculum 5*10^5 CFU/ml; for MIC: S. maltophilia 1221783, 24 h; for MBC: S. maltophilia, first line of Table 2 (1221783 by order)
Procedure: as §1
b. Indifference; FIC/FBC>0.5 to <4.0 c. Antagonism; FIC/FBC≥4.0 […]
e. Stenotrophomonas maltophilia 1221783 (IHMA), colistin susceptible

[2] = test system: non-multiplying stationary phase bacteria; test: Elimination of dormant (resistant) bacteria, long term non-multiplying stationary phase model; format: cell-based; details: nutrient depleted 5-6 day stationary phase cell suspension in PBS
Procedure: In order to test the elimination of dormant (resistant) bacteria the long term non-multiplying stationary phase model is used (Hu et al 2010 [18]). Long-term stationary phase cultures of 5 to 6 days are chosen with the test strains as described above. These late stationary phase cultures, may represent a mixed population with a dynamic balance of cell division and cell death. In order to induce the bacterial cells into a non-replicating stage, the cells are washed and incubated with PBS. […] The nutrient depleted 5-6 day stationary phase cell suspension now called non-multiplying stationary phase bacteria is used to test TEC and CS as mono substances or in combinations with the concentrations as mentioned above.

[3] = cited from earlier work

Compound: CCC(C)CCCC(=O)N[C@@H](CCN)C(=O)N[C@H](C(=O)N[C@@H](CCN)C(=O)N[C@H]1CCNC(=O)[C@H]([C@@H](C)O)NC(=O)[C@H](CCN)NC(=O)[C@H](CCN)NC(=O)[C@H](CC(C)C)NC(=O)[C@@H](CC(C)C)NC(=O)[C@H](CCN)NC1=O)[C@@H](C)O (stereo partly drawn) [CS, colistin sulphate] ({Heptanoyl(5-Me)}-[Dab]T[Dab][Dab][Dab][dL]L[Dab][Dab]T; lactam 4-C)
- MIC (A. nosocomialis 1461911; Acinetobacter nosocomialis, 1461911, 24 h, read-out: MIC): ≥ 4 µg/mL
- MBC (A. nosocomialis 1461911; Acinetobacter nosocomialis, 1461911, read-out: MBC): 8 µg/mL
- Elimination of bacteria from biofilm [1]: not so well the case
- Colony counts, incubated with as compared without a catheter piece [1]: higher colony counts
- Increase (at least two dilution steps) of MIC, incubated with as compared without a catheter piece [1]: about one third
- MBC (A. haemolyticus 1655843; Acinetobacter haemolyticus, 1655843, read-out: MBC): > 16 µg/mL
- MBC (A. junii 1397597; Acinetobacter junii, 1397597, read-out: MBC): 8 µg/mL
- MIC (A. junii 1397597; Acinetobacter junii, read-out: MIC): 2 µg/mL
- MIC (A. guillouiae 1285286; read-out: MIC): 2 µg/mL
- MBC (A. guillouiae 1285286; read-out: MBC): 4 µg/mL
- MIC (S. maltophilia 1237289; Stenotrophomonas maltophilia, inoculum 5*10^5 CFU/ml, 24 h, read-out: MIC): 0.5 µg/mL
- MIC (S. maltophilia 1237289; Stenotrophomonas maltophilia, after 48 h growth (values in brackets), read-out: MIC): 8 µg/mL
- MBC (S. maltophilia 1237289; Stenotrophomonas maltophilia, inoculum 5*10^5 CFU/ml, read-out: MBC): 8 µg/mL
- MIC (S. maltophilia 1221783; Stenotrophomonas maltophilia, 1221783, 24 h, read-out: MIC): 0.5 µg/mL
- MBC (S. maltophilia 1221783; Stenotrophomonas maltophilia, read-out: MBC): 2 µg/mL
- Elimination of non-multiplying stationary phase bacteria [2]: not as mono substances

Compound: teicoplanin [TP]
- MIC (A. nosocomialis 1461911): >64 µg/mL
- MBC (A. nosocomialis 1461911): >64 µg/mL
- Elimination of bacteria from biofilm [1]: not so well the case
- Colony counts, incubated with as compared without a catheter piece [1]: higher colony counts
- Increase (at least two dilution steps) of MIC, incubated with as compared without a catheter piece [1]: about one third
- MIC (A. haemolyticus 1655843; A. haemolyticus 1655843, 24 h): >64 µg/mL
- MBC (A. haemolyticus 1655843): >64 µg/mL
- terminal half-life, median (range) ([3]; Antony et al 1991): 168 (111-278) h
- terminal half-life, mean (±SD) ([3]; Outman et al 1990): 157 (±93) h
- MIC (A. junii 1397597): >64 µg/mL
- MBC (A. junii 1397597): >64 µg/mL
- MIC (A. guillouiae 1285286): >64 µg/mL
- MBC (A. guillouiae 1285286): >64 µg/mL
- MIC (S. maltophilia 1237289; inoculum 5*10^5 CFU/ml, 24 h): >64 (>64) mg/l
- MIC (S. maltophilia 1237289; after 48 h growth (values in brackets)): >64 (>64) mg/l
- MBC (S. maltophilia 1237289; inoculum 5*10^5 CFU/ml): >64 µg/mL
- MIC (S. maltophilia 1221783): >64 µg/mL
- MBC (S. maltophilia 1221783): >64 µg/mL
- Elimination of non-multiplying stationary phase bacteria [2]: not as mono substances
